Species on record: Rattus norvegicus
Assay: DrugMatrix - Regimen: Daily Repeat
Format: toxicity, organism-based, Sprague-Dawley
Set-up: regimen Daily Repeat, gender Male, age 6-8 weeks
Conditions: in vivo, po, route oral GAVAGE, vehicle .5 % CMC; for BASOPHIL / EOSINOPHIL / ERYTHROCYTE COUNT / HEMATOCRIT / HEMOGLOBIN / LEUKOCYTE COUNT / LYMPHOCYTE / MEAN CORPUSCULAR HEMOGLOBIN / MEAN CORPUSCULAR HEMOGLOBIN CONCENTRATION / MEAN CORPUSCULAR VOLUME / MONOCYTE / NEUTROPHIL / PLATELET COUNT: tissue Blood; for ALANINE AMINOTRANSFERASE / ALBUMIN / ALKALINE PHOSPHATASE / ASPARTATE AMINOTRANSFERASE / BLOOD UREA NITROGEN / CHLORIDE / CHOLESTEROL / CREATINE PHOSPHOKINASE / CREATININE / GLUCOSE / PHOSPHORUS / POTASSIUM / SODIUM / TOTAL BILIRUBIN / TOTAL PROTEIN: tissue Plasma
[1] = 0 mg/kg, 72 h, dose level Control, time 3 day
[2] = 0 mg/kg, 120 h, dose level Control, time 5 day
[3] = 300 mg/kg, 72 h, dose level Low, time 3 day
[4] = 300 mg/kg, 120 h, dose level Low, time 5 day
[5] = 1500 mg/kg, 72 h, dose level High, time 3 day
[6] = 1500 mg/kg, 120 h, dose level High, time 5 day

SMILES: O=C1CCc2cc(OCCCCc3nnnn3C3CCCCC3)ccc2N1 [CILOSTAZOL]
- BASOPHIL [1]: 0.68%
- EOSINOPHIL [1]: 0.46%
- ERYTHROCYTE COUNT [1]: 7.15 x10E6/uL
- HEMATOCRIT [1]: 45.44%
- HEMOGLOBIN [1]: 14.1 G/DL
- LEUKOCYTE COUNT [1]: 9.78 x10E3/uL
- LYMPHOCYTE [1]: 84.44%
- MEAN CORPUSCULAR HEMOGLOBIN [1]: 19.72 pg
- MEAN CORPUSCULAR HEMOGLOBIN CONCENTRATION [1]: 31 G/DL
- MEAN CORPUSCULAR VOLUME [1]: 63.66 fL
- MONOCYTE [1]: 2.14%
- NEUTROPHIL [1]: 11.16%
- PLATELET COUNT [1]: 1378.2 x10E3/uL
- ALANINE AMINOTRANSFERASE [1]: 42.33 u/L
- ALBUMIN [1]: 3.8 G/DL
- ALKALINE PHOSPHATASE [1]: 388.17 u/L
- ASPARTATE AMINOTRANSFERASE [1]: 68 u/L
- BLOOD UREA NITROGEN [1]: 16.17 mg/dL
- CHLORIDE [1]: 96.67 MEQ/L
- CHOLESTEROL [1]: 71 mg/dL
- CREATINE PHOSPHOKINASE [1]: 156.17 u/L
- CREATININE [1]: 0.57 mg/dL
- GLUCOSE [1]: 193.67 mg/dL
- PHOSPHORUS [1]: 11.43 mg/dL
- POTASSIUM [1]: 7 MEQ/L
- SODIUM [1]: 140.33 MEQ/L
- TOTAL BILIRUBIN [1]: 0.48 mg/dL
- TOTAL PROTEIN [1]: 6.8 G/DL
- BASOPHIL [2]: 1.47%
- EOSINOPHIL [2]: 1%
- ERYTHROCYTE COUNT [2]: 7.12 x10E6/uL
- HEMATOCRIT [2]: 45.47%
- HEMOGLOBIN [2]: 14.1 G/DL
- LEUKOCYTE COUNT [2]: 11.38 x10E3/uL
- LYMPHOCYTE [2]: 82.57%
- MEAN CORPUSCULAR HEMOGLOBIN [2]: 19.82 pg
- MEAN CORPUSCULAR HEMOGLOBIN CONCENTRATION [2]: 31.02 G/DL
- MEAN CORPUSCULAR VOLUME [2]: 63.88 fL
- MONOCYTE [2]: 2.2%
- NEUTROPHIL [2]: 11.97%
- PLATELET COUNT [2]: 1267 x10E3/uL
- ALANINE AMINOTRANSFERASE [2]: 38 u/L
- ALBUMIN [2]: 3.72 G/DL
- ALKALINE PHOSPHATASE [2]: 391 u/L
- ASPARTATE AMINOTRANSFERASE [2]: 65.83 u/L
- BLOOD UREA NITROGEN [2]: 14.17 mg/dL
- CHLORIDE [2]: 107.67 MEQ/L
- CHOLESTEROL [2]: 61 mg/dL
- CREATINE PHOSPHOKINASE [2]: 148.33 u/L
- CREATININE [2]: 0.57 mg/dL
- GLUCOSE [2]: 177.17 mg/dL
- PHOSPHORUS [2]: 12.07 mg/dL
- POTASSIUM [2]: 7.2 MEQ/L
- SODIUM [2]: 151.5 MEQ/L
- TOTAL BILIRUBIN [2]: 0.58 mg/dL
- TOTAL PROTEIN [2]: 6.72 G/DL
- BASOPHIL [3]: 0.4%
- EOSINOPHIL [3]: 0.5%
- ERYTHROCYTE COUNT [3]: 6.67 x10E6/uL
- HEMATOCRIT [3]: 43%
- HEMOGLOBIN [3]: 13.6 G/DL
- LEUKOCYTE COUNT [3]: 12.31 x10E3/uL
- LYMPHOCYTE [3]: 81.4%
- MEAN CORPUSCULAR HEMOGLOBIN [3]: 20.4 pg
- MEAN CORPUSCULAR HEMOGLOBIN CONCENTRATION [3]: 31.6 G/DL
- MEAN CORPUSCULAR VOLUME [3]: 64.55 fL
- MONOCYTE [3]: 2.4%
- NEUTROPHIL [3]: 14%
- PLATELET COUNT [3]: 1378 x10E3/uL
- ALANINE AMINOTRANSFERASE [3]: 40.67 u/L
- ALBUMIN [3]: 3.6 G/DL
- ALKALINE PHOSPHATASE [3]: 331.33 u/L
- ASPARTATE AMINOTRANSFERASE [3]: 59 u/L
- BLOOD UREA NITROGEN [3]: 14.67 mg/dL
- CHLORIDE [3]: 96 MEQ/L
- CHOLESTEROL [3]: 75.33 mg/dL
- CREATINE PHOSPHOKINASE [3]: 120.33 u/L
- CREATININE [3]: 0.53 mg/dL
- GLUCOSE [3]: 178.33 mg/dL
- PHOSPHORUS [3]: 11.33 mg/dL
- POTASSIUM [3]: 6.4 MEQ/L
- SODIUM [3]: 141 MEQ/L
- TOTAL BILIRUBIN [3]: 0.33 mg/dL
- TOTAL PROTEIN [3]: 6.43 G/DL
- BASOPHIL [4]: 1.17%
- EOSINOPHIL [4]: 0.37%
- ERYTHROCYTE COUNT [4]: 7.17 x10E6/uL
- HEMATOCRIT [4]: 46.5%
- HEMOGLOBIN [4]: 14.43 G/DL
- LEUKOCYTE COUNT [4]: 13.79 x10E3/uL
- LYMPHOCYTE [4]: 85.57%
- MEAN CORPUSCULAR HEMOGLOBIN [4]: 20.2 pg
- MEAN CORPUSCULAR HEMOGLOBIN CONCENTRATION [4]: 31.07 G/DL
- MEAN CORPUSCULAR VOLUME [4]: 64.9 fL
- MONOCYTE [4]: 2.3%
- NEUTROPHIL [4]: 9.6%
- PLATELET COUNT [4]: 1545 x10E3/uL
- ALANINE AMINOTRANSFERASE [4]: 41 u/L
- ALBUMIN [4]: 3.77 G/DL
- ALKALINE PHOSPHATASE [4]: 365.67 u/L
- ASPARTATE AMINOTRANSFERASE [4]: 63 u/L
- BLOOD UREA NITROGEN [4]: 14.67 mg/dL
- CHLORIDE [4]: 106.67 MEQ/L
- CHOLESTEROL [4]: 67.33 mg/dL
- CREATINE PHOSPHOKINASE [4]: 135 u/L
- CREATININE [4]: 0.67 mg/dL
- GLUCOSE [4]: 167 mg/dL
- PHOSPHORUS [4]: 12.53 mg/dL
- POTASSIUM [4]: 7.53 MEQ/L
- SODIUM [4]: 151.33 MEQ/L
- TOTAL BILIRUBIN [4]: 0.43 mg/dL
- TOTAL PROTEIN [4]: 6.77 G/DL
- BASOPHIL [5]: 0.53%
- EOSINOPHIL [5]: 0.27%
- ERYTHROCYTE COUNT [5]: 6.95 x10E6/uL
- HEMATOCRIT [5]: 45.23%
- HEMOGLOBIN [5]: 14.2 G/DL
- LEUKOCYTE COUNT [5]: 13.97 x10E3/uL
- LYMPHOCYTE [5]: 82.9%
- MEAN CORPUSCULAR HEMOGLOBIN [5]: 20.43 pg
- MEAN CORPUSCULAR HEMOGLOBIN CONCENTRATION [5]: 31.4 G/DL
- MEAN CORPUSCULAR VOLUME [5]: 65.13 fL
- MONOCYTE [5]: 2.43%
- NEUTROPHIL [5]: 13.1%
- PLATELET COUNT [5]: 1348.33 x10E3/uL
- ALANINE AMINOTRANSFERASE [5]: 34.67 u/L
- ALBUMIN [5]: 3.77 G/DL
- ALKALINE PHOSPHATASE [5]: 340.33 u/L
- ASPARTATE AMINOTRANSFERASE [5]: 60.33 u/L
- BLOOD UREA NITROGEN [5]: 12 mg/dL
- CHLORIDE [5]: 95 MEQ/L
- CHOLESTEROL [5]: 65.33 mg/dL
- CREATINE PHOSPHOKINASE [5]: 141 u/L
- CREATININE [5]: 0.5 mg/dL
- GLUCOSE [5]: 178.33 mg/dL
- PHOSPHORUS [5]: 11.9 mg/dL
- POTASSIUM [5]: 6.77 MEQ/L
- SODIUM [5]: 140.33 MEQ/L
- TOTAL BILIRUBIN [5]: 0.43 mg/dL
- TOTAL PROTEIN [5]: 6.67 G/DL
- BASOPHIL [6]: 0.83%
- EOSINOPHIL [6]: 0.37%
- ERYTHROCYTE COUNT [6]: 7 x10E6/uL
- HEMATOCRIT [6]: 45.1%
- HEMOGLOBIN [6]: 13.87 G/DL
- LEUKOCYTE COUNT [6]: 10.98 x10E3/uL
- LYMPHOCYTE [6]: 80.03%
- MEAN CORPUSCULAR HEMOGLOBIN [6]: 19.8 pg
- MEAN CORPUSCULAR HEMOGLOBIN CONCENTRATION [6]: 30.67 G/DL
- MEAN CORPUSCULAR VOLUME [6]: 64.47 fL
- MONOCYTE [6]: 2.53%
- NEUTROPHIL [6]: 15.27%
- PLATELET COUNT [6]: 1161 x10E3/uL
- ALANINE AMINOTRANSFERASE [6]: 45 u/L
- ALBUMIN [6]: 3.67 G/DL
- ALKALINE PHOSPHATASE [6]: 377 u/L
- ASPARTATE AMINOTRANSFERASE [6]: 66.33 u/L
- BLOOD UREA NITROGEN [6]: 12 mg/dL
- CHLORIDE [6]: 106.67 MEQ/L
- CHOLESTEROL [6]: 66.67 mg/dL
- CREATINE PHOSPHOKINASE [6]: 130 u/L
- CREATININE [6]: 0.6 mg/dL
- GLUCOSE [6]: 184.33 mg/dL
- PHOSPHORUS [6]: 12.83 mg/dL
- POTASSIUM [6]: 7.27 MEQ/L
- SODIUM [6]: 151.33 MEQ/L
- TOTAL BILIRUBIN [6]: 0.4 mg/dL
- TOTAL PROTEIN [6]: 6.6 G/DL

From ChEMBL document CHEMBL3885881, “DrugMatrix”
